Measured values as given in the NIST ThermoML archive (doi:10.1021/acs.jced.5b00251).

Experiment: refractive index (other wavelength) (dimensionless); xn = mol fraction of the nth substance listed
Conditions: 101 kPa, Liquid, Standard Abbe refractometry

CC(C)Cc1ccccc1 [(2-methylpropyl)benzene] + c1ccc2c(c1)CCCC2
refractive index
Conditions	x2 = 0.1014	x2 = 0.2024	x2 = 0.3032	x2 = 0.4036	x2 = 0.5038	x2 = 0.6036	x2 = 0.7032	x2 = 0.8024	x2 = 0.9014
293.15 K, Wavelength=436.1 nm	1.50977	1.51503	1.52078	1.52612	1.53208	1.53797	1.54392	1.55007	1.55611
293.15 K, Wavelength=513.9 nm	1.49809	1.50316	1.5087	1.51409	1.51959	1.52525	1.53097	1.5369	1.54273
293.15 K, Wavelength=589.3 nm	1.49141	1.49657	1.50199	1.50701	1.51266	1.51821	1.52382	1.52961	1.53531
293.15 K, Wavelength=633.2 nm	1.4889	1.49381	1.49922	1.50445	1.50978	1.51528	1.52085	1.5266	1.53226
293.15 K, Wavelength=657.2 nm	1.48749	1.49254	1.49852	1.50384	1.50967	1.51394	1.52005	1.52522	1.53141
298.15 K, Wavelength=436.1 nm	1.50717	1.51248	1.51824	1.52362	1.52954	1.53551	1.54144	1.54758	1.55354
298.15 K, Wavelength=513.9 nm	1.49546	1.50075	1.50623	1.51165	1.51711	1.52288	1.5286	1.53447	1.54022
298.15 K, Wavelength=589.3 nm	1.48927	1.49432	1.49956	1.50446	1.51023	1.51588	1.52148	1.52722	1.53287
298.15 K, Wavelength=633.2 nm	1.48633	1.49149	1.49681	1.50206	1.50737	1.51298	1.51853	1.52424	1.52981
298.15 K, Wavelength=657.2 nm	1.48512	1.49029	1.49594	1.50135	1.50706	1.51205	1.51776	1.52302	1.52941
303.15 K, Wavelength=436.1 nm	1.50468	1.50986	1.51569	1.52094	1.52674	1.53306	1.53885	1.54503	1.55109
303.15 K, Wavelength=513.9 nm	1.49315	1.49828	1.50376	1.50899	1.5146	1.52033	1.52606	1.532	1.53785
303.15 K, Wavelength=589.3 nm	1.48673	1.49163	1.49715	1.5021	1.50776	1.51352	1.51899	1.52478	1.53052
303.15 K, Wavelength=633.2 nm	1.48406	1.48893	1.49439	1.49932	1.50493	1.51036	1.51604	1.52181	1.52748
303.15 K, Wavelength=657.2 nm	1.48275	1.48792	1.49332	1.49885	1.50461	1.50983	1.51528	1.52043	1.52666
308.15 K, Wavelength=436.1 nm	1.50202	1.50759	1.5129	1.51879	1.52412	1.53042	1.53639	1.5425	1.54823
308.15 K, Wavelength=513.9 nm	1.49045	1.49591	1.50103	1.50671	1.51215	1.51765	1.52366	1.52953	1.53505
308.15 K, Wavelength=589.3 nm	1.48428	1.48939	1.49461	1.49955	1.50515	1.51099	1.51661	1.52237	1.52797
308.15 K, Wavelength=633.2 nm	1.48142	1.48659	1.4917	1.49701	1.50224	1.50811	1.51368	1.51941	1.52477
308.15 K, Wavelength=657.2 nm	1.48038	1.48538	1.49085	1.49669	1.50224	1.50738	1.51272	1.51825	1.52447
313.15 K, Wavelength=436.1 nm	1.49957	1.5048	1.51044	1.51631	1.52152	1.52806	1.53388	1.54002	1.54572
313.15 K, Wavelength=513.9 nm	1.48816	1.49321	1.49885	1.50413	1.50976	1.51512	1.52123	1.52715	1.53263
313.15 K, Wavelength=589.3 nm	1.48198	1.48705	1.49215	1.49702	1.50259	1.50845	1.51422	1.52003	1.52558
313.15 K, Wavelength=633.2 nm	1.47918	1.48409	1.48957	1.49422	1.49959	1.50542	1.51132	1.51708	1.52248
313.15 K, Wavelength=657.2 nm	1.47807	1.48312	1.48866	1.49418	1.49947	1.50491	1.51025	1.51573	1.52168
318.15 K, Wavelength=436.1 nm	1.49678	1.50247	1.50783	1.51372	1.51897	1.52533	1.53125	1.53748	1.54301
318.15 K, Wavelength=513.9 nm	1.48564	1.49078	1.49611	1.50143	1.50751	1.51299	1.51892	1.52466	1.53007
318.15 K, Wavelength=589.3 nm	1.47955	1.48455	1.48962	1.49455	1.49987	1.50614	1.51175	1.51758	1.52287
318.15 K, Wavelength=633.2 nm	1.47656	1.48179	1.4869	1.49181	1.49721	1.50325	1.50887	1.51464	1.51989
318.15 K, Wavelength=657.2 nm	1.47562	1.48056	1.48595	1.49181	1.49685	1.50222	1.50758	1.51388	1.51897
